Patent US20180311334A1, “Compositions and Methods for Inducing an Immune Response” (Yale University, priority 2017, published 2018)

Key:
[1] = tested on: murine bone marrow-derived macrophages; assay: qPCR of cytokine mRNA in bone marrow-derived macrophages (BMM); type: cell-based, C57BL/6 mice; conditions: 1 μM soluble xyliquimod, 12 hours, WT and TLR7KO BMM
Method: Finally, before leaving the sortase-based xyliquimod incorporation approach behind altogether, it was tested it in a more physiologically relevant experimental system. To this end, stimulations in murine bone marrow-derived macrophages (BMM) were performed and the resulting immune responses were assessed by quantifying expression of IL-1β, a pro-inflammatory cytokine transcriptionally regulated by NFκB. Besides more accurately recapitulating the physiological response to an immune stimulus than the RAW-NFκB-sLuc assay, the primary macrophage model offered two additional advantages over reporter cell lines. First, the dynamic range of qPCR analysis is far greater than that of the luciferase assay, so smaller differences in immune activation can be detected more readily. […]
After stimulation of BMDCs and BMMs, the supernatant was removed, cells were lysed, and RNA was isolated using the RNeasy kit (Qiagen, Germantown, Md.) according to manufacturer's instructions. cDNA was reverse-transcribed with an oligo(dT) primer using Moloney murine leukemia virus reverse transcriptase (MMLV RT). cDNA was analyzed in triplicate by qPCR amplification using SYBR Green Supermix (Life Technologies, Carlsbad, Calif.) on a Bio-Rad CFX96 Real-Time PCR Detection System (Bio-Rad, Hercules, Calif.). […]

WT S. aureus Newman = assay: S. aureus growth in presence of copper (optical density); type: cell-based, Staphylococcus aureus; conditions: 2 mM copper, 4.25 hours, absorbance at 600 nm
Method: WT S. aureus Newman was grown in the presence and absence of 2 mM copper for 4.25 hours. Growth was monitored by optical density: absorbance measurements were taken every 15 minutes at 600 nm.

Molecule	IL-1β mRNA expression [1]	S. aureus growth (WT S. aureus Newman)
CCCCc1nc2c(N)nc3ccccc3c2n1Cc1ccc(CN)cc1 [xyliquimod, 1-(4-(aminomethyl)benzyl)-2-butyl-1Himidazo[4,5-c]quinolin-4-amine]	active in WT and not TLR7KO macrophages	
copper		completely inhibit S. aureus growth
